From publication PMC7822816, “Halo-fluorescein for photodynamic bacteria inactivation in extremely acidic conditions” (Nature Communications, 2021)

How the values were obtained:
H. pylori = experiment: IC50 of photodynamic inactivation, H. pylori; details: Helicobacter pylori, 10 min, pH 2.5, read-out: IC50 (H. pylori)
Method: (§1) For quantitative comparison, the half-maximal inhibitory concentrations (IC50) of TIF for these bacterial were measured (Supplementary Table 6, and Supplementary Figs. 51–58).
(§2) Bacterial strains are listed in Supplementary Table 6. S. aureus and MRSA, and C. albicans were provided by West China Hospital of Stomatology, Sichuan University. A. acidoterrestris, S. enterica, H. pylori, L. plantarum, and E. coli were provided by College of Life Science, Sichuan University. The bacteria were cultured overnight in a constant temperature oscillator (37 °C, 170 r/min, the specific culture conditions were listed in Supplementary Table 6). Suspensions of bacteria (100 μL, diluted 1000-folds, PBS) were added with different concentration PSs (final volume of 1 mL), and irradiated with LED (λ = 520 nm, 35 mW/cm^2) for 10 min. Then, the treated bacteria liquid (100 μL) were added into the culture medium and cultured in a 24-well plate. The OD600 of bacteria was measured to obtain the bacteria CFUs, and the survival rate were calculated as C/C0 × 100%, where C is the CFU of sample which treated with PSs and light, and C0 is the blank without any treatment. All photodynamic sterilizations were carried out in at least three replicates.
(§3) Irradiation: 520 nm green LED (6 mW/cm2), 10 min. Error bars = Standard Deviation (n=3).
(§4) Irradiation: 520 nm green LED (6 mW/cm2), 10 min.

C. albicans = experiment: IC50 of photodynamic inactivation, C. albicans; details: Candida albicans, 10 min, pH 3, read-out: IC50 (C. albicans)
Method: as §1, §2, §3, §4

[1] = test system: broad band of aciduric bacteria; experiment: Photodynamic inactivation, summary over aciduric bacteria; details: read-out: IC50 (broad band of aciduric bacteria)
Method: as §1
(§5) The bacteria were cultured overnight in a constant temperature oscillator (37 °C, 170 r/min, the specific culture conditions were listed in Supplementary Table 6). Suspensions of bacteria (100 μL, diluted 1000-folds, PBS) were added with different concentration PSs (final volume of 1 mL), and irradiated with LED (λ = 520 nm, 35 mW/cm^2) for 10 min. Then, the treated bacteria liquid (100 μL) were added into the culture medium and cultured in a 24-well plate. The OD600 of bacteria was measured to obtain the bacteria CFUs, and the survival rate were calculated as C/C0 × 100%, where C is the CFU of sample which treated with PSs and light, and C0 is the blank without any treatment. All photodynamic sterilizations were carried out in at least three replicates.

S. aureus = experiment: IC50 of photodynamic inactivation, S. aureus; details: Staphylococcus aureus, 10 min, pH 2.5, read-out: IC50 (S. aureus)
Method: as §1
S. aureus and MRSA, and C. albicans were provided by West China Hospital of Stomatology, Sichuan University. A. acidoterrestris, S. enterica, H. pylori, L. plantarum, and E. coli were provided by College of Life Science, Sichuan University. The bacteria were cultured overnight in a constant temperature oscillator (37 °C, 170 r/min, the specific culture conditions were listed in Supplementary Table 6). Suspensions of bacteria (100 μL, diluted 1000-folds, PBS) were added with different concentration PSs (final volume of 1 mL), and irradiated with LED (λ = 520 nm, 35 mW/cm^2) for 10 min. Then, the treated bacteria liquid (100 μL) were added into the culture medium and cultured in a 24-well plate. The OD600 of bacteria was measured to obtain the bacteria CFUs, and the survival rate were calculated as C/C0 × 100%, where C is the CFU of sample which treated with PSs and light, and C0 is the blank without any treatment. All photodynamic sterilizations were carried out in at least three replicates.

MRSA = experiment: IC50 / growth inhibition of photodynamic inactivation, MRSA; assay type: cell-based, methicillin-resistant S. aureus
[2] = assay type: physicochemical; details: buffer, 5 min, pH 3
Method: Next, the influence of the added TIF to jucies after photodynamic sterilization was further investigated from the following two aspects. First, like many other dyes, TIF experienced photo-bleaching upon photo irradiation. As shown in Supplementary Fig. 69, in the presence of green LED irradiation (520 nm, 50 mW/cm^2), the absorbance of TIF decreased rapidly in 5 min (with ~22% remaining). In other words, most of the added TIF in juices is expected to lose the ability of ROS generation after the first photodynamic sterilization process. Second, the ingredients inside the juices before and after TIF-involved photodynamic sterilization were evaluated. Here, the investigations were concentrated on antioxidants due to the high activity of ROS[42]. Three representative antioxidants, namely, ascorbic acid (vitamin C), phenolic compounds, and flavonoid, were chosen. […] Besides, the color, flavor, and texture of the juices were roughly evaluated through visual observation and smelling (method supplied in the Chinese National Standard GB/T 31121-2014), no appreciable changes were observed before and after TIF-based photodynamic sterilization. […]
(1) The photo-bleaching of TIF. […] As can be seen from Figure R3 below, in the presence of green LED irradiation (520 nm, 50 mW/cm2), the absorbance of TIF decreased rapidly in 5 min (with ~22% remaining). […]

E. coli = experiment: IC50 / growth inhibition of photodynamic inactivation, E. coli
Method: as §5
Growth inhibition of E. coli by different concentrations of TIF.
Irradiation: 520 nm green LED (6 mW/cm2), 10 min. Error bars = Standard Deviation (n=6).
Growth inhibition of Salmonella by different concentrations of
TIF. Irradiation: 520 nm green LED (6 mW/cm2), 10 min.

[3] = 1O2 phosphorescence emission under different pH and irradiance; assay type: physicochemical; details: pH 2.2 (the gastric acidity), 10 μM
From the text: To evaluate the pH-dependent ^1O2 generation, TIF, PB, and RB were chosen here because of their high ^1O2 generation efficiency and low pH0.5. […] Similar results from PB and RB were also observed (Supplementary Figs. 17 and 18). When pH was lowered down to 2.2 (the gastric acidity), appreciable ^1O2 phosphorescence emission was still collected from TIF, indicating the good performance of TIF in photosensitized generation of ^1O2 in extremely acidic condition. Besides, the pH-induced decrease of ^1O2 generation could be compensated through enlarging the light irradiance. […] Therefore, TIF featured good performance for potential photodynamic bacteria inactivation at extremely acidic conditions.
A total of 10 μM TIF solutions were first prepared with citric acid–Na2HPO4 buffer (100 mM, diluted by D2O) to yield different pH (2.2–6.0). Then, a laser of 532 nm was selected as the lighting source, and the ^1O2 phosphorescence emission were collected.
S5.3 1O2 phosphorescence emission of TIF under different pH and irradiance 10 μM TIF solutions were first prepared with citric acid-Na2HPO4 buffer (100 mM, diluted by D2O) to yield different pH (2.2-6.0). The pH value of solution were adjust by HCl (c, diluted by D2O). Then, laser of 532 nm was selected as the light source, and the 1O2 phosphorescence emission were collected by near infrared detector (H-10330)
Supplementary Figure 19. […]

[4] = test system: C. albicans infection of oral mucosa
From the text: The extremely acidic environment was constructed through changing the pH of the mucosa and diluting PSs in pH 3.0 PBS buffer. […] During the investigations, the infected ICR mice were divided into six groups (six mice per group): blank, light, TIF, TIF + light, Ce 6 + light, and Zn-tpp + light. For comparison and better visualization of the infection, a normal group (no infection) was also included.
To construct the oral mucosal infection model, cotton balls immersed in solutions containing 10^8 CFU/mL of C. albicans were placed in the mouth of mice for 75 min. At day 1 and day 3, 50 μL pH 3.0 PBS and PSs (20 μM, diluted by pH 3.0 PBS) were added to oral mucosa, and treated with different lasers (510 nm for TIF, 660 nm for Ce 6 and Zn-tpp, 50 mW/cm^2) for 10 min.
To investigate the therapy effect, photographs, colonies, weights, and pathology index of mice were taken every other day. After day 3, one mouse in each group was sacrificed, and the tissues of oral mucosa were harvested for hematoxylin and eosin (H&E) staining. The pathology index was evaluated based on the standard given in Supplementary Table 10.

Structure (SMILES): O=C(O)c1ccccc1-c1c2cc(I)c(=O)c(I)c-2oc2c(I)c(O)c(I)cc12 [TIF, 2′,4′,5′,7′-tetraiodofluorescein]
- IC50 (H. pylori): 180 nM
- IC50 (C. albicans): 1040 nM
- IC50 [1]: < 1100 nM
- IC50 (S. aureus): 370 nM
- IC50 (MRSA; Staphylococcus aureus, 10 min, pH 2.5, LED 520 nm, 35 mW/cm^2, 10 min): 340 nM
- Inhibition ratio (MRSA; dose 2.0 μM, 3 V/3 W, 6 mW/cm2, 10 min): > 97.1%
- absorbance remaining after photo-bleaching [2]: ~ 22%
- Inhibition ratio (E. coli; E.coli, dose 0.5 μM, 3 V/3 W, 6 mW/cm2, 10 min): > 99.3%
- IC50 (E. coli; Escherichia coli, 10 min, pH 2.5, read-out: IC50 (E. coli)): 210 nM
- 1O2 phosphorescence emission (1270 nm) [3]: appreciable
- pseudo membrane on tongue ([4]; TIF + light group): disappeared gradually
- body weight loss of infected mice ([4]; TIF + light group, within 7 days): least loss
- pathology index ([4]; TIF + light group, 20 μM in pH 3.0 PBS, 510 nm 50 mW/cm^2 10 min, day 1 and day 3): remained almost unchanged
- H&E staining of tongue sections, without light ([4]; TIF group, no light): large amounts of inflammation infiltration
- H&E staining of tongue sections, with light ([4]; photosensitizer + light (510 nm TIF, 660 nm Ce 6 and Zn-tpp)): generally similar to that of the normal group
